According to patent US8952128B2, “Somatostatin-dopamine chimeric analogs” (priority 2012, dated 2015):
Bridge positions count the residues as written; N and C are the ends. Square brackets hold non-standard residues; d marks the D form. Peptide text beside a SMILES is read from it. * marks the point of attachment. X2 = CN1C[C@H](CSCC(=O)*)C[C@@H]2c3cccc4[nH]cc(c34)C[C@H]21; 4Pal = N[C@@H](Cc1ccncc1)C(=O)O; dDab = NCC[C@@H](N)C(=O)O

Experiments:
[1] = target: hDRD2 (Homo sapiens (Human), UniProt P14416); test: cell-based; details: for Emax: read-out: hDRD2 % Emax ± SEM
Description: The ability of select compounds according to the present invention to activate hSSTR2 and hDRD2 was determined by the intracellular calcium mobilization assay using FLIPR Calcium 4 assay kit (Molecular Devices).
Cells expressing hSSTR2 or hDRD2 were plated in 384-well microplates in tissue culture media and incubated for 16-24 hours at 37° C. in a humidified atmosphere with 5% CO2. Medium was replaced by loading buffer containing Hank's buffered saline, 20 mM HEPES, 2.5 mM probenecid and Calcium 4 dye, and the plates were incubated at 37° C. for 60 minutes.

[2] = target: hSSTR2 (Homo sapiens (Human), UniProt P30874); test: Intracellular calcium mobilization assay (FLIPR Calcium 4), hSSTR2; assay type: cell-based; details: for improvement in EC50 over Reference Compound A: Student's t-test, one-tailed, p <0.05; for Emax: read-out: hSSTR2 % Emax ± SEM;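 as to all read-outs here: agonist activity read as intracellular calcium rise in cells expressing human SSTR2, loaded with a calcium-sensitive dye for 60 min at 37 °C, measured by FLIPR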
Sequence of hSSTR2 (P30874 whole entry): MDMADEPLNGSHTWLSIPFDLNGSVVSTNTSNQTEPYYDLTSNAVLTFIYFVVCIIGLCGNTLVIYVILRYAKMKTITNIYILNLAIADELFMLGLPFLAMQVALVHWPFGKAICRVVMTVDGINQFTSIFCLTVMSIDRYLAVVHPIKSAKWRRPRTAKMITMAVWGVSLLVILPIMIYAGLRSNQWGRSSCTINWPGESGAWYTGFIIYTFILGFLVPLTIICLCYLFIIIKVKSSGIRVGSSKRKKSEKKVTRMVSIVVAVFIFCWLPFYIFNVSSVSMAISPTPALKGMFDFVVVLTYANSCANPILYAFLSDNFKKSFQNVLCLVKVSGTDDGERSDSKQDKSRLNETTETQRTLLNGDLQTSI

Row | SMILES | Emax [1] | improvement in EC50 over Reference Compound A [2] | Emax [2] | EC50 [1] | EC50 [2] | improvement in % Emax over Reference Compound C ([2]; calcium mobilization) | EC50 value lower than that for Reference Compound A ([2]; calcium mobilization, Tables IV and VI)
1 | C[C@@H](O)[C@@H]1NC(=O)[C@H](CCCCN)NC(=O)[C@@H](Cc2c[nH]c3ccccc23)NC(=O)[C@H](Cc2ccccc2)NC(=O)[C@H](Cc2ccccc2)NC(=O)[C@H](CCCNC(=N)N)NC(=O)[C@H](NCCSC[C@@H]2C[C@@H]3c4cccc5[nH]cc(c45)C[C@H]3N(C)C2)CCCCNC(=O)[C@H](Cc2ccc(F)cc2)NC1=O [Compound 6, Dop1-psi(CH2NH)-cyclo(DLys-Arg-Phe-Phe-DTrp-Lys-Thr-4FPhe)] | 88.3 ± 5.1% | statistically significant improvement | 99.1 ± 0.6% | – | – | – | –
2 | C[C@@H](O)[C@@H]1NC(=O)[C@H](CCCCN)NC(=O)[C@@H](Cc2c[nH]c3ccccc23)NC(=O)[C@H](Cc2ccccc2)NC(=O)[C@H](Cc2ccccc2)NC(=O)[C@H](CCCNC(=N)N)NC(=O)[C@H](NC(=O)[C@H](Cc2ccc(O)cc2)NC(=O)CSC[C@@H]2C[C@@H]3c4cccc5[nH]cc(c45)C[C@H]3N(C)C2)CCNC(=O)[C@H](Cc2ccccc2)NC1=O [Reference Compound B, Dop1-Tyr-cyclo(DDab-Arg-Phe-Phe-DTrp-Lys-Thr-Phe), reference compound] (X2-Y[dDab]RFF[dW]KTF; lactam 2-C) | 92.8 ± 6.6% | – | 66.7 ± 5.8% | – | – | – | –
3 | CC(=O)N(CCC(=O)NC(CN[C@@H]1CCCCNC(=O)[C@H](Cc2ccc(F)cc2)NC(=O)[C@H]([C@@H](C)O)NC(=O)[C@H](CCCCN)NC(=O)[C@@H](Cc2c[nH]c3ccccc23)NC(=O)[C@H](Cc2ccccc2)NC(=O)[C@H](Cc2ccccc2)NC(=O)[C@H](CCCNC(=N)N)NC1=O)Cc1ccc(O)cc1)C[C@@H]1C[C@@H]2c3cccc4[nH]cc(c34)C[C@H]2N(C)C1 (single isomer, unassigned) [Compound 27, 3-[N-acetyl-N-(D-6-methyl-8β-ergolinylmethyl)]-aminopropionyl-Tyr-psi(CH2NH)-cyclo(DLys-Arg-Phe-Phe-DTrp-Lys-Thr-4FPhe)] | – | – | 95.9 ± 2.4% | 50.7 ± 6.8 nM | 11.4 ± 2 nM | – | –
4 | C[C@@H](O)[C@@H]1NC(=O)[C@H](CCCCN)NC(=O)[C@@H](Cc2c[nH]c3ccccc23)NC(=O)[C@H](Cc2ccccc2)NC(=O)[C@H](Cc2ccccc2)NC(=O)[C@H](CCCNC(=N)N)NC(=O)[C@H](NC(=O)[C@@H](Cc2ccc(O)cc2)NC(=O)CSC[C@@H]2C[C@@H]3c4cccc5[nH]cc(c45)C[C@H]3N(C)C2)CCCCNC(=O)[C@H](Cc2ccccc2)NC1=O [Compound 37, Dop1-DTyr-cyclo(DLys-Arg-Phe-Phe-DTrp-Lys-Thr-Phe)] (X2-[dY][dK]RFF[dW]KTF; lactam 2-C) | 93.7 ± 4.3% | – | 85.5 ± 6.7% | – | – | – | –
5 | C[C@@H](O)[C@@H]1NC(=O)[C@H](CCCCN)NC(=O)[C@@H](Cc2c[nH]c3ccccc23)NC(=O)[C@H](Cc2ccccc2)NC(=O)[C@H](Cc2ccccc2)NC(=O)[C@H](CCCNC(=N)N)NC(=O)[C@H](NC(=O)[C@H](CCCCNC(=O)CSC[C@@H]2C[C@@H]3c4cccc5[nH]cc(c45)C[C@H]3N(C)C2)NC(=O)CSC[C@@H]2C[C@@H]3c4cccc5[nH]cc(c45)C[C@H]3N(C)C2)CCNC(=O)[C@H](Cc2ccccc2)NC1=O [Reference Compound C, Dop1-Lys(Dop1)-cyclo(DDab-Arg-Phe-Phe-DTrp-Lys-Thr-Phe), reference compound] (X2-K(X2)[dDab]RFF[dW]KTF; lactam 2-C) | – | – | – | 112 ± 39.2 nM | 68.7 ± 40.8 nM | – | –
6 | C[C@@H](O)[C@@H]1NC(=O)[C@H](CCCCN)NC(=O)[C@@H](Cc2c[nH]c3ccccc23)NC(=O)[C@H](Cc2ccncc2)NC(=O)[C@H](Cc2ccccc2)NC(=O)[C@H](CCCNC(=N)N)NC(=O)[C@H](NCCS(=O)(=O)C[C@@H]2C[C@@H]3c4cccc5[nH]cc(c45)C[C@H]3N(C)C2)CCCCNC(=O)[C@H](Cc2ccc(O)cc2)NC1=O [Compound 20, Dop1(SO2)-psi(CH2NH)-cyclo(DLys-Arg-Phe-4Pal-DTrp-Lys-Thr-Tyr)] | – | – | 100.2 ± 0.9% | 7.4 ± 1.5 nM | 0.7 ± 0.1 nM | – | –
7 | C[C@@H](O)[C@@H]1NC(=O)[C@H](CCCCN)NC(=O)[C@@H](Cc2c[nH]c3ccccc23)NC(=O)[C@H](Cc2ccccc2)NC(=O)[C@H](Cc2ccccc2)NC(=O)[C@H](CCCNC(=N)N)NC(=O)[C@H](NCCC[C@@H]2C[C@@H]3c4cccc5[nH]cc(c45)C[C@H]3N(C)C2)CCCCNC(=O)[C@H](Cc2ccc(F)cc2)NC1=O [Compound 1, (D-6-methyl-8β-ergolinyl)-propionyl-psi(CH2NH)-cyclo(DLys-Arg-Phe-Phe-DTrp-Lys-Thr-4FPhe)] | 102.1 ± 0.4% | – | 98.7% | – | – | – | –
8 | C[C@@H](O)[C@@H]1NC(=O)[C@H](CCCCN)NC(=O)[C@@H](Cc2c[nH]c3ccccc23)NC(=O)[C@H](Cc2ccncc2)NC(=O)[C@H](Cc2ccccc2)NC(=O)[C@H](CCCNC(=N)N)NC(=O)[C@H](NCCSC[C@@H]2C[C@@H]3c4cccc5[nH]cc(c45)C[C@H]3N(C)C2)CCCCNC(=O)[C@H](Cc2ccc(O)cc2)NC1=O [Compound 7, Dop1-psi(CH2NH)-cyclo(DLys-Arg-Phe-4Pal-DTrp-Lys-Thr-Tyr)] | 102 ± 5% | statistically significant improvement | 96.9 ± 2.5% | – | – | – | –
9 | C[C@@H](O)[C@@H]1NC(=O)[C@H](CCCCN)NC(=O)[C@@H](Cc2c[nH]c3ccccc23)NC(=O)[C@H](Cc2ccncc2)NC(=O)[C@H](Cc2ccccc2)NC(=O)[C@H](CCCNC(=N)N)NC(=O)[C@H](NC[C@H](CCCCNC(=O)CSC[C@@H]2C[C@@H]3c4cccc5[nH]cc(c45)C[C@H]3N(C)C2)NC(=O)CSC[C@@H]2C[C@@H]3c4cccc5[nH]cc(c45)C[C@H]3N(C)C2)CCCCNC(=O)[C@H](Cc2ccccc2)NC1=O [Compound 9, Dop1-Lys(Dop1)-psi(CH2NH)-cyclo(DLys-Arg-Phe-4Pal-DTrp-Lys-Thr-Phe)] | – | – | 98.4 ± 1.6% | 15.5 ± 3.7 nM | 22.2 ± 5.5 nM | statistically significant improvement | –
10 | C[C@@H](O)[C@@H]1NC(=O)[C@H](CCCCN)NC(=O)[C@@H](Cc2c[nH]c3ccccc23)NC(=O)[C@H](Cc2ccccc2)NC(=O)[C@H](Cc2ccccc2)NC(=O)[C@H](CCCNC(=N)N)NC(=O)[C@H](NC[C@H](CCCCNC(=O)CSC[C@@H]2C[C@@H]3c4cccc5[nH]cc(c45)C[C@H]3N(C)C2)NC(=O)CSC[C@@H]2C[C@@H]3c4cccc5[nH]cc(c45)C[C@H]3N(C)C2)CCCCNC(=O)[C@H](Cc2ccc(F)cc2)NC1=O [Compound 47, Dop1-Lys(Dop1)-psi(CH2NH)-cyclo(DLys-Arg-Phe-Phe-DTrp-Lys-Thr-4FPhe)] | – | – | 96.2 ± 5.9% | 46.6 ± 12.2 nM | 77.5 ± 19 nM | statistically significant improvement | –
11 | C[C@@H](O)[C@@H]1NC(=O)[C@H](CCCCN)NC(=O)[C@@H](Cc2c[nH]c3ccccc23)NC(=O)[C@H](Cc2ccncc2)NC(=O)[C@H](Cc2ccccc2)NC(=O)[C@H](CCCNC(=N)N)NC(=O)[C@H](NC(=O)CSC[C@@H]2C[C@@H]3c4cccc5[nH]cc(c45)C[C@H]3N(C)C2)CCCCNC(=O)[C@H](Cc2ccccc2)NC1=O [Compound 24, Dop1-cyclo(DLys-Arg-Phe-4Pal-DTrp-Lys-Thr-Phe)] (X2-[dK]RF[4Pal][dW]KTF; lactam 1-C) | – | statistically significant improvement | – | 37.3 ± 6.4 nM | – | – | about 9 fold
12 | C[C@@H](O)[C@@H]1NC(=O)[C@H](CCCCN)NC(=O)[C@@H](Cc2c[nH]c3ccccc23)NC(=O)[C@H](Cc2ccccc2)NC(=O)[C@H](Cc2ccccc2)NC(=O)[C@H](CCCNC(=N)N)NC(=O)[C@H](NC[C@@H](Cc2ccc(O)cc2)NC(=O)CSC[C@@H]2C[C@@H]3c4cccc5[nH]cc(c45)C[C@H]3N(C)C2)CCCCNC(=O)[C@H](Cc2ccccc2)NC1=O [Compound 41, Dop1-DTyr-psi(CH2NH)-cyclo(DLys-Arg-Phe-Phe-DTrp-Lys-Thr-Phe)] | – | – | 104% | 62.6 nM | 29.6 nM | – | –
13 | C[C@@H](O)[C@@H]1NC(=O)[C@H](CCCCN)NC(=O)[C@@H](Cc2c[nH]c3ccccc23)NC(=O)[C@H](Cc2ccccc2)NC(=O)[C@H](Cc2ccccc2)NC(=O)[C@H](CCCNC(=N)N)NC(=O)[C@H](NC(=O)CSC[C@@H]2C[C@@H]3c4cccc5[nH]cc(c45)C[C@H]3N(C)C2)CCNC(=O)[C@H](Cc2ccccc2)NC1=O [Reference Compound A, Dop1-cyclo(DDab-Arg-Phe-Phe-DTrp-Lys-Thr-Phe), reference compound] (X2-[dDab]RFF[dW]KTF; lactam 1-C) | 59.7 ± 7% | – | 86.2 ± 7% | – | – | – | –
14 | CC(=O)N(CCCNC(CN[C@@H]1CCCCNC(=O)[C@H](Cc2ccc(F)cc2)NC(=O)[C@H]([C@@H](C)O)NC(=O)[C@H](CCCCN)NC(=O)[C@@H](Cc2c[nH]c3ccccc23)NC(=O)[C@H](Cc2ccccc2)NC(=O)[C@H](Cc2ccccc2)NC(=O)[C@H](CCCNC(=N)N)NC1=O)Cc1ccc(O)cc1)C[C@@H]1C[C@@H]2c3cccc4[nH]cc(c34)C[C@H]2N(C)C1 (single isomer, unassigned) [Compound 28A, 3-[N-acetyl-N-(D-6-methyl-8β-ergolinylmethyl)]-aminopropionyl-psi(CH2NH)-Tyr-psi(CH2NH)-cyclo(DLys-Arg-Phe-Phe-DTrp-Lys-Thr-4FPhe)] | – | – | 109 ± 20% | 65.5 ± 3.6 nM | 14.9 ± 6.3 nM | – | –
15 | C[C@@H](O)[C@@H]1NC(=O)[C@H](CCCCN)NC(=O)[C@@H](Cc2c[nH]c3ccccc23)NC(=O)[C@H](Cc2ccccc2)NC(=O)[C@H](Cc2ccccc2)NC(=O)[C@H](CCCNC(=N)N)NC(=O)[C@H](NC[C@H](Cc2ccc(O)cc2)NC(=O)CCN(C[C@@H]2C[C@@H]3c4cccc5[nH]cc(c45)C[C@H]3N(C)C2)S(C)(=O)=O)CCCCNC(=O)[C@H](Cc2ccc(F)cc2)NC1=O [Compound 42, [N-(D-6-methyl-8β-ergolinylmethyl)-N-(methylsulfonyl)]-aminopropionyl-Tyr-psi(CH2NH)-cyclo(DLys-Arg-Phe-Phe-DTrp-Lys-Thr-4FPhe)] | 94.5 ± 0.3% | – | 78.6 ± 2.3% | – | – | – | –
